Columns and labels:
[1] = tested on: human gingival fibroblasts (HGFs); assay: Tn expression in HGFs, immunofluorescent staining with anti-Tn antibody; type: cell-based; conditions: for Tn levels in HGFs, responsiveness to purified cytokine: 0, 10, 30, 100 ng/ml for 24 hours; for Tn levels in HGFs: TNF-α 30 ng/ml
Method: FIG. 6A. Immunohistochemical analysis of Tn antigen in inflammatory tissues (top) and normal tissues (bottom). Tn staining in atherosclerotic aorta (left; labeled Aorta), bronchitis tissue (middle; labeled Bronchi), and periodontitis tissue (right; labeled Gingiva). Brown color represents Tn antigen expression. FIG. 6B. HGFs were treated with conditioned media from U937 cells stimulated with LPS (0, 10, 30 and 100 ng/ml; 24 hours) for 24 hours and then stained with purified rabbit anti-Tn antibody (in red) and DAPI (in blue). FIG. 6C. U937 cells were treated with LPS (0, 10, 30 and 100 ng/ml) for 24 hours, the secretions of TNF-α were analyzed by ELISA. Original magnifications (100×). Scale bar, 50 μm. FIG. 6D. U937 cells were treated with LPS (0, 10, 30 and 100 ng/ml) for 24 hours, the secretions of IL-6 were analyzed by ELISA. Original magnifications (100×). Scale bar, 50 μm. FIG. 6E. U937 cells were treated with LPS (0, 10, 30 and 100 ng/ml) for 24 hours, the secretions of IL-1β were analyzed by ELISA. Original magnifications (100×). Scale bar, 50 μm.
FIGS. 7A and 7B show pro-inflammatory cytokines, TNF-α and IL-6, up-regulates Tn levels in HGFs. FIG. 7A. The effect of pro-inflammatory cytokines on Tn expression in HGFs. HGFs were treated with purified TNF-α, IL-6 and IL-1β at the concentration of 0, 10, 30, and 100 ng/ml for 24 hours and then stained with purified rabbit anti-Tn antibody (in red) and DAPI (in blue). Original magnification (100×); scale bar, 50 μm. FIG. 7B. Time course analysis of Tn expressions in HGFs after TNF-α treatment. HGFs were treated with purified TNF-α at the concentration of 30 ng/ml for 4, 8, 12, 24 and 48 hours and then stained with purified rabbit anti-Tn antibody (in red) and DAPI (in blue) (Magnifications 630×; scale bar, 50 μm). The experiments were repeated at least three times.
(§1) FIG. 9A. Effect of TNF-α and demethylation agents on the methylation level of COSMC gene in HGFs. The comparison of methylation changes is in the HGFs which were treated with or without TNF-α and demethylation agents. The UCSC genome browser illustrated the orientation and the first exon of COSMC (blue bar), GC percent (black scale bar), CpG islands (green bar) and the sequencing region of bisulfite pyrosequencing (COSMC_py02, black bar). […] FIG. 9B. HGFs were co-treated with purified TNF-α and different concentrations of 5-aza-dC (0, 1, 2 and 5 μM) for 24 hours and then immunofluorescent stained with rabbit anti-Tn antibody (in red) and DAPI (in blue). Magnification 630×; Scale bar, 50 μm.

COSMC gene = assay: Bisulfite pyrosequencing of COSMC gene promoter methylation in HGFs; type: cell-based, human
Method: as §1

C57BL/6NCrlBltw mice = assay: Serum anti-Tn antibody titers by ELISA after immunization; type: in vivo; conditions: mice immunized subcutaneously with adjuvant, versus background before immunization
Method: Five-week-old female C57BL/6NCrlBltw mice were subcutaneously immunized with Tn vaccine at a dose of 20 μg or carrier protein (10 μg of mFc(Cys42-Tn)Histag2) in the presence of adjuvant in 100 μl for four times at biweekly intervals and one additional immunization at one week later after the fourth immunization. Blood was withdrawn from facial vein for anti-Tn antibody titer measurement using enzyme-linked immunosorbent assay (ELISA) on days 0, 42, and 49. Four days after the last immunization, mice were exposed to room air (RA) or oxygen-enriched atmosphere (100% O2) for up to 96 hours. Oxygen exposures was carried out in a transparent 60×50×40-cm Plexiglas chamber into which oxygen was continuously delivered at 4 l/min and oxygen levels were monitored with a ProOx Model 110 monitor (NexBiOxy, Hsinchu, Taiwan) and humidity was checked daily and the value was 60-80%. We obtained four study groups as follows: carrier protein+RA (n=6), Tn vaccine+RA (n=6), carrier protein+O2 (n=6), and Tn vaccine+O2 (n=5). Mice were deeply anesthetized with an overdose of isoflurane after 96 hours O2 treatment. […] This washing procedure was repeated two more times for each animal, with the three washes being pooled, and the total volume recorded. […]
GST(Cys6-Tn) was coated on 96-well flat-bottomed plates (Falcon Labware, Lincoln Park, N.J., USA) at a concentration of 1.5 μg/ml. […] Absorbance was read at 410 nm.

NF-κB P65 = assay: Immunohistochemistry of NF-κB in lung; type: in vivo, mice; conditions: hyperoxia group immunized with carrier protein compared with control and Tn-treated hyperoxia groups
Method: After a routine deparaffinization step, heat-induced epitope retrieval was performed by immersing the slides in 0.01 mol/L sodium citrate buffer (pH 6.0). To block the endogenous peroxidase activity and nonspecific antibody binding, sections were first preincubated for 1 hour at room temperature in 0.1 mol/L PBS containing 10% normal goat serum and 0.3% H2O2 before incubating for 20 hours at 4° C. with the rabbit polyclonal anti-NF-κB P65 (1:50 dilution; Abcam Inc., Cambridge, Mass., USA) as primary antibody. The sections were then treated for 1 hour at room temperature with biotinylated goat anti-rabbit IgG (1:200, Vector, Calif., USA). This was followed by reaction with the reagents from an ABC kit (Avidin-Biotin Complex, Vector, Calif., USA) according to the manufacturer's recommendations, and the reaction products were visualized by diaminobenzidine substrate kit (Vector, Calif., USA). All immunostained sections were viewed and photographed by Olympus BX 43.

COSMC = assay: qPCR of COSMC mRNA in HGFs; type: cell-based, human; conditions: 100 ng/ml, 24 hours
Method: (§2) FIG. 8A. Effect of TNF-α and demethylation agents (5-aza-dC) on mRNA expression of COSMC and T-synthase in HGFs. qPCR was used to analyze COSMC and T-synthase mRNA expression in HGFs upon TNF-α and 5-aza-dC treatment. The mRNA expression of COSMC and T-synthase was normalized to GAPDH and statistically analyzed. (*: p<0.05 compared with TNF-α only) Calculations of relative gene expression (normalized to GAPDH reference gene) were performed according to the ΔΔCT method. Fidelity of the PCR reaction was determined by melting temperature analysis. FIG. 8B. Western blotting was used to analyze the protein levels of Cosmc and T-synthase upon 6 and 24 hours of TNF-α treatment. FIG. 8C. and FIG. 8D. HGFs were treated with purified TNF-α for 6 or 24 hours and then immunofluorescent stained with anti-Cosmc (in red) and anti-T-synthase antibodies (in green) and DAPI (in blue). Original magnification (100×); scale bar, 50 μm.

T-synthase = assay: qPCR of T-synthase mRNA in HGFs; type: cell-based, human; conditions: 100 ng/ml, 24 hours
Method: as §2

## interleukine-6 [IL-6]
[1]
  Tn levels in HGFs, responsiveness to purified cytokine: moderately responsive

## Nc1ncn([C@H]2C[C@H](O)[C@@H](CO)O2)c(=O)n1 [5-aza-dC, reference compound]
COSMC gene; HGFs treated with TNF-α and demethylation agent
  TNF-α-induced COSMC gene hypermethylation: can be suppressed
[1]; HGFs co-treated with TNF-α and 0, 1, 2, 5 μM for 24 hours
  TNF-α-induced Tn expression: can be suppressed

## interleukin-1β [IL-1β]
[1]
  Tn levels in HGFs, responsiveness to purified cytokine: not responsive

## Fc fragment-7 repeats of Pro-Cys-Cys-Gly-Cys-Cys-Gly-Cys-Gly-Cys-N-succinimidyl-6-maleimidocaproate [carrier protein]
C57BL/6NCrlBltw mice
  serum anti-Tn antibody titers: low serum Tn antibody titers
C57BL/6NCrlBltw mice; listed as carrier polypeptide
  serum anti-Tn antibody titers: background serum anti-Tn antibody levels
NF-κB P65
  NFκB immunoreactivity in lung: more intense NFκB immunoreactivity

## tumor necrosis factor-α [TNF-α]
COSMC
  COSMC mRNA in HGFs: significantly down-regulated
COSMC gene; TNF-α treatment of HGFs
  methylation of four CpG sites in the promoter of the COSMC gene: significantly hypermethylated
[1]
  Tn levels in HGFs, responsiveness to purified cytokine: most responsive
[1]; 8 to 12 hrs
  Tn levels in HGFs: Gradual increase
[1]; 4 hrs
  Tn levels in HGFs: essentially unchanged
[1]; after 24 hours
  Tn levels in HGFs: gradually decreased
[1]; after 48 hours
  Tn levels in HGFs: markedly decreased
T-synthase
  T-synthase mRNA level in HGFs: did not significantly alter

Source: patent US10485868B2, “Tn vaccine composition and method for alleviating inflammation” (TAIPEI MEDICAL UNIVERSITY, priority 2017, dated 2019)
